According to patent US7750184B2, “Vitamin D receptor modulators” (Eli Lilly and Company, priority 2003, dated 2010):

What was measured:
VDR = target: T1, VDR (Homo sapiens, UniProt P11473); assay: Caco-2 cell co-transfection assay (VDR CTF); type: cell-based; conditions: Caco-2 cells, pGal4-VDR-LBD co-transfection, luciferase reporter
T1 construct: the receptor expression vector pGal4-VDR-LBD (10 ng); expressed in transfected cells; host or cells: Caco-2 cells
T1 sequence (P11473 127-423 limits assumed): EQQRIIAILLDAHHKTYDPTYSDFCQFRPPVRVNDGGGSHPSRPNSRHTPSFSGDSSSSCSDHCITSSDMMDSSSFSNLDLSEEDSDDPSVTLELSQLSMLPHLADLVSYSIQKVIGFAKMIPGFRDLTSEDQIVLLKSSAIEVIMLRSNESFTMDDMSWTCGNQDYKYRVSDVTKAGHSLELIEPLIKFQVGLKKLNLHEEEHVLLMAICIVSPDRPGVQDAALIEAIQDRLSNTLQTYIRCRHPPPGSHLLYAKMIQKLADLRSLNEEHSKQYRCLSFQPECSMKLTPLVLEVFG
Experimental: 2. The Caco-2 Cell Co-Transfection Assay:
The Caco-2 cell assay is an indicator for the undesirable condition of hypercalcemia. This co-transfection assay is a surrogate assay for in vivo calcemic activity of VDR ligands. […] Preferred assay results are greater than 1000 nM.
(2) Materials and Method for The Caco-2 Cell Assay:
Caco-2 cells, grown in phenol red free, DMEM (Invitrogen, Carlsbad, Calif.) containing 10% charcoal-stripped FCS (Hyclone, Logan, Utah), were transfected with Fugene 6 reagent (Roche Diagnostics, Indianapolis, Ind.). Cells (5000/well) were plated 18 h before transfection in a 96 well plate. The Cells were transfected with Gal4-responsive reporter pFRLuc (150 ng, Stratagene, La Jolla Calif.) and the receptor expression vector pGal4-VDR-LBD (10 ng), along with Fugene 6 reagent (0.2 μl/well). The DNA-Fugene complex was formed by incubating the mixture for 30 min at room temperature. The cells were transfected in triplicate for 5 h, and treated with various concentrations of VDR ligands (form 0.01 nM to 10,000 nM concentration range) 18 h post-transfection. The luciferase activity was quantified using Steady-Glo reagent kit (Promega, Madison, Wis.) as per manufacturer's specifications.

[1] = Mouse hypercalcemia assay; conditions: oral gavage for 6 days, serum ionized calcium 6 hours after last dosing
Experimental: The Mouse Hypercalcemia Assay is a six day hypercalcemia test for toxicity and selectivity. Acceptable test results are levels greater than 300 μg/kg/day. Preferred assay results are levels greater than 1000 μg/day.
(4) Materials and Method for the Mouse Hypercalcemia Assay:
Weanling, virus—antibody-free, five to six weeks old female DBF mice (Harlan, Indianapolis, Ind.) are used for all the studies. Animals are allowed to acclimate to local vivarium conditions for 2 days. […] The animals then are divided into groups with 4-5 mice per group. Different doses of test compounds prepared in 10% Ethanol and 90% sesame oil are administered to mice orally via gavage for 6 days. 1α-25(OH)2D3 0.5 μg/kg/d was also given to one group of mice as the positive control. […] Raw data of group differences is assessed by analysis of variance (ANOVA) using Fisher's protected least significant difference (PLSD) where the significance level was P<0.05.

rat osteocalcin promoter = assay: OCN (osteocalcin) promoter assay; type: cell-based; conditions: RG-15 (ROS 17/2.8) cells, 48 hr treatment, luciferase reporter
Experimental: 3. The OCN (osteocalcin) Promoter Assay
The OCN Promoter Assay is an indicator and marker for osteoporosis. […] Preferred assay results are less than 50 nM.
(3) Materials and Method for the OCN Promoter Assay:
The activation of osteocalcin by VDR ligands was evaluated in a rat osteoblast-like cell line RG-15 (ROS 17/2.8) stably expressing rat osteocalcin promoter fused with luciferase reporter gene. […] Confluent RG-15 cells maintained in DMEM/F-12 medium (3:1) containing 5% FBS, 300 μg/ml G418 and at 37° C. under 5% CO2/95% air atmosphere were trypsinized (0.25% trypsin) and plated into white opaque 96-well cell culture plates (25000 cells/well). After 24 hr, cells (in DMEM/F-12 medium+2% FBS) were treated with various concentrations of compounds, dissolved in DMSO. The final DMSO concentration remained at 0.01% (v/v). After 48 hr treatment, the medium was removed, cells were lysed with 50 μl of lysis buffer (From Luciferase reporter assay system, Roche Diagnostics, Indianapolis, Ind.) and assayed for luciferase activity using the Luciferase Reporter Gene Assay kit from Boehringer Mannheim as per manufacturer's specifications.

Row | SMILES | EC50 (VDR) [nM] | Mouse Hypercal [1] [µg/kg/day] | EC50 (rat osteocalcin promoter) [nM] | EC50 (rat osteocalcin promoter; Rattus norvegicus, 48 h) [nM]
1 | CCC(CC)(c1ccc(OC[C@H](O)C(C)(C)C)c(C)c1)c1ccc(OS(C)(=O)=O)c(C)c1 (single isomer, unassigned) [Ex. 3, 3′-[4-(2-hydroxy-3,3-dimethylbutoxy)-3-methylphenyl]-3′-[4-(methanesulfonyloxy)-3-methylphenyl]pentane] | 133 | 50 | 16.3 | 
2 | CCC(CC)(c1ccc(OCC(=O)C(C)(C)C)c(C)c1)c1ccc(OS(=O)(=O)CC)c(C)c1 [Ex. 8, 3′-[4-(2-oxo-3,3-dimethylbutoxy)-3-methylphenyl]-3′-[4-(ethanesulfonyloxy)-3-methylphenyl]pentane] | 34.8 |  |  | 3.48
3 | CCC(CC)(c1ccc(OCC(O)C(C)(C)C)c(C)c1)c1ccc(OS(=O)(=O)CC)c(C)c1 (centres unmarked) [Ex. 9, 3′-[4-(2-hydroxy-3,3-dimethylbutoxy)-3-methylphenyl]-3′-[4-(ethanesulfonyloxy)-3-methylphenyl]pentane] | 13 |  |  | 
4 | CCC(CC)(c1ccc(OCC(=O)C(C)(C)C)c(C)c1)c1ccc(N(CCSC)S(C)(=O)=O)c(C)c1 [Ex. 30, N-(4-{1-[4-(3,3-Dimethyl-2-oxo-butoxy)-3-methyl-phenyl]-1-ethyl-propyl}-2-methyl-phenyl)-N-(2-methylsulfanyl-ethyl)-methanesulfonamide] |  |  |  | 104
5 | CCC(CC)(c1ccc(OCC(=O)C(C)(C)C)cc1)c1cc(C)c(OS(C)(=O)=O)c(C)c1 [Ex. 41, 3′-[4-(2-oxo-3,3-dimethylbutoxy)-phenyl]-3′-[3,5-dimethyl-4-methylsulfonyloxy-phenyl]pentane] | 614 |  |  | 111
6 | CCC(CC)(c1ccc(OS(C)(=O)=O)cc1)c1ccc(OCC(=O)C(C)(C)C)c(C)c1 [Ex. 38, 3′-[4-(2-oxo-3,3-dimethylbutoxy)-3-methylphenyl]-3′-[4-methylsulfonyloxy-phenyl]pentane] |  | <300 |  | 2.08
7 | CCC(CC)(c1ccc(NS(=O)(=O)CCSC(C)C)c(C)c1)c1ccc(OCC(=O)C(C)(C)C)c(C)c1 [Ex. 33, N-(4-{1-[4-(3,3-Dimethyl-2-oxo-butoxy)-3-methyl-phenyl]-1-ethyl-propyl}-2-methyl-phenyl)-2-isopropylsulfanyl-ethanesulfonamide] |  |  |  | 49.4
8 | CCC(CC)(c1ccc(OCC(=O)C(C)(C)C)c(C)c1)c1cc(C)c(OS(C)(=O)=O)c(C)c1 [Ex. 40, 3′-[4-(2-oxo-3,3-dimethylbutoxy)-3-methylphenyl]-3′-[3,5-dimethyl-4-methylsulfonyloxy-phenyl]pentane] | 375 | 300 |  | 1.91
9 | CCC(CC)(c1ccc(NS(C)(=O)=O)c(C)c1)c1ccc(OCC(O)C(C)(C)C)c(C)c1 (centres unmarked) [Ex. 12, 3′-[4-(2-Hydroxy-3,3-dimethylbutoxy)-3-methylphenyl]-3′-[4-(methanesulfonylamino)-3-methylphenyl]pentane] | 112 |  |  | 2.33
10 | CCC(CC)(c1ccc(OCC(O)C(C)(C)C)cc1)c1ccc(OS(C)(=O)=O)c(C)c1 (centres unmarked) [Ex. 37, 3′-[4-(2-hydroxy-3,3-dimethylbutoxy)-phenyl]-3′-[4-methylsulfonyloxy-3-methylphenyl]pentane] | 308 |  |  | 67.2
11 | CCC(CC)(c1ccc(OCC(=O)C(C)(C)C)c(C)c1)c1ccc(N(S(=O)(=O)CC)S(=O)(=O)CC)c(C)c1 [Ex. 22, N-(4-{1-[4-(3,3-dimethyl-2-oxo-butoxy)-3-methyl-phenyl]-1-ethyl-propyl}-2-methyl-phenyl)-N,N-bis-ethanesulfonamide] |  | 500 |  | 29.8
12 | CCC(CC)(c1ccc(OCC(=O)C(C)(C)C)c(C)c1)c1ccc(N(C)S(=O)(=O)CC)c(C)c1 [Ex. 24, N-(4-{1-[4-(3,3-Dimethyl-2-oxo-butoxy)-3-methyl-phenyl]-1-ethyl-propyl}-2-methyl-phenyl)-N-methyl-ethanesulfonamide] |  | <1000 |  | 44.6
13 | CCC(CC)(c1ccc(NS(=O)(=O)CCS(=O)(=O)C(C)C)c(C)c1)c1ccc(OCC(=O)C(C)(C)C)c(C)c1 [Ex. 34, N-(4-{1-[4-(3,3-Dimethyl-2-oxo-butoxy)-3-methyl-phenyl]-1-ethyl-propyl}-2-methyl-phenyl)-2-(propane-2-sulfonyl)-ethanesulfonamide] |  |  |  | 374
14 | CCC(CC)(c1ccc(NS(=O)(=O)CCS(=O)(=O)CC)c(C)c1)c1ccc(OCC(=O)C(C)(C)C)c(C)c1 [Ex. 32, N-(4-{1-[4-(3,3-Dimethyl-2-oxo-butoxy)-3-methyl-phenyl]-1-ethyl-propyl}-2-methyl-phenyl)-2-ethanesulfonyl-ethanesulfonamide] |  |  |  | 240
15 | CCC(CC)(c1ccc(OCC(O)C(C)(C)C)c(C)c1)c1ccc(N(C)S(C)(=O)=O)c(C)c1 (centres unmarked) [Ex. 19, N-(4-{1-Ethyl-1-[4-(2-hydroxy-3,3-dimethyl-butoxy)-3-methyl-phenyl]-propyl}-2-methyl-phenyl)-N-methyl-methanesulfonamide] |  |  |  | 16.8
16 | CCC(CC)(c1ccc(OCC(O)CO)c(C)c1)c1ccc(OCC(O)C(C)(C)C)c(C)c1 (centres unmarked) [BB, 3-(4-{1-Ethyl-1-[4-(2-hydroxy-3,3-dimethyl-butoxy)-3-methyl-phenyl]-propyl}-2-methyl-phenoxy)-propane-1,2-diol, reference compound] |  | 20 |  | 11
17 | CCC(CC)(c1ccc(NS(=O)(=O)CC(F)(F)F)c(C)c1)c1ccc(OCC(=O)C(C)(C)C)c(C)c1 [Ex. 29, N-(4-{1-[4-(3,3-Dimethyl-2-oxo-butoxy)-3-methyl-phenyl]-1-ethyl-propyl}-2-methyl-phenyl)-2,2,2-trifluoro-ethanesulfonamide] |  | 100 |  | 4.58
18 | CCC(CC)(c1ccc(OCC(=O)C(C)(C)C)c(C)c1)c1ccc(OS(C)(=O)=O)c(C)c1 [Ex. 4, 3′-[4-(2-oxo-3,3-dimethylbutoxy)-3-methylphenyl]-3′-[4-(methanesulfonyloxy)-3-methylphenyl]pentane] | 164 |  |  | 0.91
19 | CCC(CC)(c1ccc(OCC(=O)C(C)(C)C)c(C)c1)c1ccc(N(S(=O)(=O)CC(F)(F)F)S(=O)(=O)CC(F)(F)F)c(C)c1 [Ex. 28, N-(4-{1-[4-(3,3-Dimethyl-2-oxo-butoxy)-3-methyl-phenyl]-1-ethyl-propyl}-2-methyl-phenyl)-N,N-bis-2,2,2-trifluoro-ethanesulfonamide] |  | 1000 |  | 17.9
20 | CCC(CC)(c1ccc(OCC(O)C(C)(C)C)c(C)c1)c1ccc(N(C)S(C)(=O)=O)c(C)c1 (single isomer, unassigned) [Ex. 20, N-(4-{1-ethyl-1-[4-(2-hydroxy-3,3-dimethyl-butoxy)-3-methyl-phenyl]-propyl}-2-methyl-phenyl)-N-methyl-methanesulfonamide] |  | 500 | 28.1 | 
21 | CCC(CC)(c1ccc(OCC(C)(O)C(C)(C)C)c(C)c1)c1ccc(OS(=O)(=O)CC)c(C)c1 (centres unmarked) [Ex. 10, 3′-[4-(2-hydroxy-2-methyl-3,3-dimethylbutoxy)-3-methylphenyl]-3′-[4-(ethanesulfonyloxy)-3-methylphenyl]pentane] | 15 |  |  | 0.3
22 | CCSCCS(=O)(=O)Nc1ccc(C(CC)(CC)c2ccc(OCC(=O)C(C)(C)C)c(C)c2)cc1C [Ex. 31, N-(4-{1-[4-(3,3-Dimethyl-2-oxo-butoxy)-3-methyl-phenyl]-1-ethyl-propyl}-2-methyl-phenyl)-2-ethylsulfanyl-ethanesulfonamide] |  |  |  | 44
23 | CCC(CC)(c1ccc(NS(=O)(=O)C(F)(F)F)c(C)c1)c1ccc(OCC(=O)C(C)(C)C)c(C)c1 [Ex. 27, N-(4-{1-[4-(3,3-Dimethyl-2-oxo-butoxy)-3-methyl-phenyl]-1-ethyl-propyl}-2-methyl-phenyl)-trifluoromethanesulfonamide] |  | 500 |  | 10.6
